In US20030191096A1, “Method of hormonal therapy” (priority 2002, published 2003):

System: male accessory sex glands and tissues in sexually immature castrated male rats
Experiment: Oral Hershberger Assay: weights of male accessory sex glands and tissues after ten days of oral gavage
Type: in vivo, rat
Conditions: ten consecutive days
Experimental: Applicants performed a set of experiments to identify the potential for a compound to mimic endogenous sex hormones. An in vivo study was performed using a short-term screening assay to identify changes in weights of male accessory sex glands and tissues in sexually immature castrated male rats. The study preformed is known in the art as an “Oral Hershberger Assay”.
This study included forty-two sexually immature castrated male rats that were randomly assigned to seven different groups and assigned formulations of the test article, oxandrolone, positive control article, 17α-methyl testosterone, or the vehicle, aqueous 0.5% methylcellulose. These formulations were administered orally via gavage once daily for ten consecutive days at dosages of 0 (vehicle), 1, 3 and 10 mg/kg/day. The dosage volume was 0.5 mL/kg, adjusted daily for body weight changes and were given at approximately the same time each day.
Approximately 24 hours after the last dosage administration the rats were euthanized via carbon dioxide asphyxiation. The following tissues were excised trimmed and weighed: liver, paired adrenal glands, paired kidneys, ventral prostate, seminal vesicles together with the coagulating gland, levator ani and bulbocavemous muscles, glands penis and cowper's gland. These tissues were retained in neutral buffered 10% formalin to be used for any possible future evaluation.
The following table presents the percent changes from the control group value.

C[C@]12CCC(=O)C=C1CC[C@@H]1[C@@H]2CC[C@@]2(C)[C@H]1CC[C@]2(C)O [Meth-Test, 17α-methyl testosterone]
Cowpers Gland, percent changes from the control group value (1 mg/kg/day orally via gavage): 88.7%
Glands Penis, percent changes from the control group value (1 mg/kg/day orally via gavage): 127.9%
Levator Ani and Bulbocavernous, percent changes from the control group value (1 mg/kg/day orally via gavage): 111.0%
Prostate (Fixed), percent changes from the control group value (1 mg/kg/day orally via gavage): 101.9%
Prostate, percent changes from the control group value (1 mg/kg/day orally via gavage): 97.0%
Seminal Vesicles with Fluid, percent changes from the control group value (1 mg/kg/day orally via gavage): 89.6%
Cowpers Gland, percent changes from the control group value (3 mg/kg/day orally via gavage): 179.0%
Glands Penis, percent changes from the control group value (3 mg/kg/day orally via gavage): 102.6%
Levator Ani and Bulbocavernous, percent changes from the control group value (3 mg/kg/day orally via gavage): 114.2%
Prostate (Fixed), percent changes from the control group value (3 mg/kg/day orally via gavage): 119.0%
Prostate, percent changes from the control group value (3 mg/kg/day orally via gavage): 109.1%
Seminal Vesicles with Fluid, percent changes from the control group value (3 mg/kg/day orally via gavage): 118.0%
Cowpers Gland, percent changes from the control group value (10 mg/kg/day orally via gavage): 237.1%
Glands Penis, percent changes from the control group value (10 mg/kg/day orally via gavage): 122.9%
Levator Ani and Bulbocavernous, percent changes from the control group value (10 mg/kg/day orally via gavage): 139.7%
Prostate (Fixed), percent changes from the control group value (10 mg/kg/day orally via gavage): 234.0%
Prostate, percent changes from the control group value (10 mg/kg/day orally via gavage): 222.5%
Seminal Vesicles with Fluid, percent changes from the control group value (10 mg/kg/day orally via gavage): 194.4%

C[C@]12COC(=O)C[C@@H]1CC[C@@H]1[C@@H]2CC[C@@]2(C)[C@H]1CC[C@]2(C)O [Oxandro, oxandrolone]
Cowpers Gland, percent changes from the control group value (1 mg/kg/day orally via gavage): 137.1%
Glands Penis, percent changes from the control group value (1 mg/kg/day orally via gavage): 104.1%
Levator Ani and Bulbocavernous, percent changes from the control group value (1 mg/kg/day orally via gavage): 107.3%
Prostate (Fixed), percent changes from the control group value (1 mg/kg/day orally via gavage): 127.6%
Prostate, percent changes from the control group value (1 mg/kg/day orally via gavage): 135.3%
Seminal Vesicles with Fluid, percent changes from the control group value (1 mg/kg/day orally via gavage): 100.7%
Cowpers Gland, percent changes from the control group value (3 mg/kg/day orally via gavage): 159.7%
Glands Penis, percent changes from the control group value (3 mg/kg/day orally via gavage): 107.4%
Levator Ani and Bulbocavernous, percent changes from the control group value (3 mg/kg/day orally via gavage): 148.2%
Prostate (Fixed), percent changes from the control group value (3 mg/kg/day orally via gavage): 149.9%
Prostate, percent changes from the control group value (3 mg/kg/day orally via gavage): 139.4%
Seminal Vesicles with Fluid, percent changes from the control group value (3 mg/kg/day orally via gavage): 120.1%
Cowpers Gland, percent changes from the control group value (10 mg/kg/day orally via gavage): 206.5%
Glands Penis, percent changes from the control group value (10 mg/kg/day orally via gavage): 109.6%
Levator Ani and Bulbocavernous, percent changes from the control group value (10 mg/kg/day orally via gavage): 192.4%
Prostate (Fixed), percent changes from the control group value (10 mg/kg/day orally via gavage): 192.2%
Prostate, percent changes from the control group value (10 mg/kg/day orally via gavage): 166.3%
Seminal Vesicles with Fluid, percent changes from the control group value (10 mg/kg/day orally via gavage): 171.0%
